This passage reports nuclear translocation (1=yes) results from PubChem BioAssay AID504472 (NMMLSC, 2011).

Activity calls are given as the source filed them.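 Rule for the calls: active = compound moving the GFP-tagged Gln3 signal into the yeast nucleus, as rapamycin does; inactive = the rest.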

The test system of the assay is S. cerevisiae Gln3-GFP nuclear translocation, microscopy. Description: Gln3-GFP nuclear translocation in yeast, SAR follow-up, yeast TOR pathway modulator project, S. cerevisiae, GFP fusion, microscopy (AID 504472). As to conditions: at 30 µM; stronger effect = higher value.
For `CO[C@H]1C[C@@H]2CC[C@@H](C)[C@@](O)(O2)C(=O)C(=O)N2CCCC[C@H]2C(=O)O[C@H]([C@H](C)C[C@@H]2CC[C@@H](O)[C@H](OC)C2)CC(=O)[C@H](C)/C=C(\C)[C@@H](O)[C@@H](OC)C(=O)[C@H](C)C[C@H](C)/C=C/C=C/C=C/1C`, the nuclear translocation (1=yes) is 1.
With `CNc1nc(N)c([N+](=O)[O-])c(Nc2cccc(F)c2)n1` the figure was 0 (inactive); with `CNc1nc(N)c([N+](=O)[O-])c(Nc2ccccc2)n1`, 0 (inactive); with `CNc1nc(N)c([N+](=O)[O-])c(Nc2cccc(Cl)c2)n1`, 0 (inactive).
